Measured values: ChEMBL document CHEMBL6109039, “Designed and synthesized novel tripeptides targeting diabetes and its related pathologies” (Eur J Med Chem, 2025)
Activity calls are given as the source filed them. The rule behind the calls is not given here. Residues, ends and D or L forms follow the SMILES beside them.

Columns and labels:
[1] = system: N=C(N)NCCC[C@H](N)C(=O)N[C@@H](Cc1c[nH]c2ccccc12)C(=O)N[C@@H](Cc1c[nH]c2ccccc12)C(=O)O; experiment: Competitive inhibition of Alpha-glucosidase (unknown origin) using p-nitrophenyl-alpha-D-glucopyranoside as substrate assessed as maximum velocity pre-incubated for 10 mins followed by substrate addition and measured after 5 mins by Lineweaver-Burk plot analysis (reference value: 0.802); format: protein assay; conditions: Homo sapiens; time 15.0 min
[2] = system: N=C(N)NCCC[C@H](N)C(=O)N[C@@H](Cc1c[nH]c2ccccc12)C(=O)N[C@@H](Cc1c[nH]c2ccccc12)C(=O)O; experiment: Competitive inhibition of Alpha-glucosidase (unknown origin) using p-nitrophenyl-alpha-D-glucopyranoside as substrate assessed as Km pre-incubated for 10 mins followed by substrate addition and measured after 5 mins by Lineweaver-Burk plot analysis (reference value: 1.785 mM); format: protein assay; conditions: Homo sapiens; time 15.0 min
Mus musculus [3] = experiment: Antidiabetic activity in STZ induced male Balb/c mouse model assessed as ordered nephron cells with glomeruli at 63.81 ug/kg, ip treated for 21 days; format: functional, organism-based; conditions: dose 63.81 µg/kg, time 21.0 day
Mus musculus [4] = experiment: Antidiabetic activity in STZ induced male Balb/c mouse model assessed as reduction in bowman's space at 63.81 ug/kg, ip treated for 21 days; format: functional, organism-based; conditions: dose 63.81 µg/kg, time 21.0 day
[5] = biological target: T1, Pancreatic alpha-amylase (Sus scrofa) (UniProt P00690); experiment: Mixed type inhibition of porcine pancreatic Alpha-amylase using starch as substrate pre-incubated for 20 mins followed by substrate addition and measured after 15 mins by DNS reagent based absorbance assay; conditions: time 35.0 min
T1 sequence (whole entry): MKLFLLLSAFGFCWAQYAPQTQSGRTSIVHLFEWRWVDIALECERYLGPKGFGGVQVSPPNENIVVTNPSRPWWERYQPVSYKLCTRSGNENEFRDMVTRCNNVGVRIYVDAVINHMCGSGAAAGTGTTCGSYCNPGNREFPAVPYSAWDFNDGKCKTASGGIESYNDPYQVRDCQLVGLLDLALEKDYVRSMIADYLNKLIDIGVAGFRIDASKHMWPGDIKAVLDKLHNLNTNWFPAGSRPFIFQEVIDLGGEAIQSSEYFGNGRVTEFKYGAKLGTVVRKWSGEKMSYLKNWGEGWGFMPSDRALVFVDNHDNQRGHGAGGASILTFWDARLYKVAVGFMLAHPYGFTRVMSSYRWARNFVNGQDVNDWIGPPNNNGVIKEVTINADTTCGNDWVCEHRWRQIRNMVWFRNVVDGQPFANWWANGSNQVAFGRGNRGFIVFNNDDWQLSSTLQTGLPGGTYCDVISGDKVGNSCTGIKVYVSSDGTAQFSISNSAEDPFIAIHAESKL

Mus musculus [6] = experiment: Antidiabetic activity in STZ induced male Balb/c mouse model assessed as reduction in glomerulus diameter at 63.81 ug/kg, ip treated for 21 days; format: functional, organism-based; conditions: dose 63.81 µg/kg, time 21.0 day
Mus musculus [7] = experiment: Antidiabetic activity in STZ induced male Balb/c mouse model assessed as appearance of tubule epithelium at 63.81 ug/kg, ip treated for 21 days; format: functional, organism-based; conditions: dose 63.81 µg/kg, time 21.0 day
Mus musculus [8] = experiment: Antidiabetic activity in STZ induced male Balb/c mouse model assessed as amelioration of tubular degeneration at 10 mg/kg, po treated for 21 days; format: functional, organism-based; conditions: time 21.0 day
Mus musculus [9] = experiment: Antidiabetic activity in STZ induced male Balb/c mouse model assessed as amelioration of abnormal nephron cell morphology at 10 mg/kg, po treated for 21 days; format: functional, organism-based; conditions: time 21.0 day
Mus musculus [10] = experiment: Antidiabetic activity in STZ induced male Balb/c mouse model assessed as amelioration of glomerular necrosis at 10 mg/kg, po treated for 21 days; format: functional, organism-based; conditions: time 21.0 day
Mus musculus [11] = experiment: Antidiabetic activity in STZ induced male Balb/c mouse model assessed as amelioration of endocytic vacuole content at 10 mg/kg, po treated for 21 days; format: functional, organism-based; conditions: time 21.0 day
Mus musculus [12] = experiment: Antidiabetic activity in STZ induced male Balb/c mouse model assessed as amelioration of glomerular shrinkage at 10 mg/kg, po treated for 21 days; format: functional, organism-based; conditions: time 21.0 day
Mus musculus [13] = experiment: Antidiabetic activity in STZ induced male Balb/c mouse model assessed as amelioration of tubular necrosis at 10 mg/kg, po treated for 21 days; format: functional, organism-based; conditions: time 21.0 day

“Alpha glucosidase (Homo sapiens) (from UniProt O43451+P10253+P14410+Q2M2H8)” showed a Vmax [1] of 0.7 and a Km [2] of 1370 µM.

For `N=C(N)NCCC[C@H](N)C(=O)N[C@@H](Cc1c[nH]c2ccccc12)C(=O)N[C@@H](Cc1c[nH]c2ccccc12)C(=O)O` (H-Arg-Trp-Trp-OH), the Activity (Mus musculus [3]) was “Active”, the Activity (Mus musculus [4]) was “Active” and the inhibition [5] was “Active”. The Activity (Mus musculus [6]) was “Active” and the Activity (Mus musculus [7]) was “Active”.

For `CCC1=C(C)CN(C(=O)NCCc2ccc(S(=O)(=O)NC(=O)N[C@H]3CC[C@H](C)CC3)cc2)C1=O`, the Activity (Mus musculus [8]) was “Active”, the Activity (Mus musculus [9]) was “Active” and the Activity (Mus musculus [10]) was “Active”. The Activity (Mus musculus [11]) was “Active”, the Activity (Mus musculus [12]) was “Active” and the Activity (Mus musculus [13]) was “Active”.
